From patent US12594267B2, “Capsid inhibitors for the treatment of HIV” (Gilead Sciences, Inc., priority 2018, dated 2026)
Where two headings read alike, the source gives them in different places.

Tests used:
[1] = Plasma PK after single oral administration in solution, summary over the four species; format: in vivo; settings: male, Sprague-Dawley (rat), beagle (dog), range of species means (rat, dog, cynomolgus monkey, rhesus monkey)
Procedure: An oral formulation containing a compound of Formula (Ia) in […], 20% propylene glycol, 45 PEG 300, and 30% 0.01 N HCl was prepared. The formulation was orally administered to male rat, dog, cynomolgus monkey, and rhesus monkey according to the doses shown in Table 8 below.

[2] = PK after oral administration in liquid-filled capsules in dogs; format: in vivo, beagle dogs; settings: for bioavailability: oral, calculated based on AUC0-72h vs average IV AUC0-72h
Procedure: A single dose of the compound of Formula (Ia), formulated as liquid-filled capsules (LFC) containing either 100% glycerol monocaprylocaprate or 20% caprylocaproyl polyoxyl-8 glycerides and 80% glycerol monocaprylocaprate was administered orally at 7.5 mg fixed dose to 6 male beagle dogs (Table 9). At 100 mg/mL of the compound of Formula (Ia), the AUCinf increased with increasing glycerol monocaprylocaprate content. For the formulation with 100% glycerol monocaprylocaprate, the AUCinf at 50 mg/mL was higher than that at 100 mg/mL.
A single dose of the compound of Formula (Ia), formulated as liquid-filled capsules (LFC) containing 100% glycerol monocaprylocaprate, was administered orally at 7.5 mg fixed dose to 6 beagle dogs (Table S) and the pharmacokinetic (PK) profile was determined. […] Plasma concentrations of the compound of Formula (Ia) were maintained above the target trough concentration of 20 nM for at least 72 hours (3 days).

[3] = IV AUC used as reference for % F of capsules; set-up: species or system beagle dogs; settings: beagle, dog, in vivo; IV at 1 mg/kg; reference for % F in Table 9; read-out: average IV AUC0-72h
WT HXB2D = experiment: Cytopathic antiviral assay in MT-2 cells, wild type HXB2D; format: cell-based, HIV-1; settings: mean ± s.d. of three experiments in triplicate
Procedure: (§1) The antiviral activity of the compound of Formula (a) was tested against a panel of known HIV-1 mutants resistant to HIV PIs (ATV and DRV), NRTIs (TFV and FTC), NNRTIs (RPV and EFV) or INSTIs (RAL, EVG and DTG) using a cytopathic antiviral assay in MT-2 cells. The compound of Formula (Ia) was fully active against all tested mutants resistant to PIs (Table 11), NRTIs (Table 12), NNRTIs (Table 13) or INSTIs (Table 14).

PI-resistant viruses = experiment: Cytopathic antiviral assay in MT-2 cells, PI-resistant viruses; format: cell-based, HIV-1; settings: for EC50 Fold-Change: Mutant/WT (HXB2D) EC50 ratio, mean ± s.d. of three experiments
Procedure: as §1

NNRTI-resistant viruses = experiment: Cytopathic antiviral assay in MT-2 cells, NNRTI-resistant viruses; format: cell-based, HIV-1; settings: for EC50 Fold-Change: Mutant/WT (HXB2D) EC50 ratio, mean ± s.d. of three experiments
Procedure: as §1

[4] = dog, plasma, fasted, pentagastrin-pretreated male beagle dogs, oral LFC 7.5 mg fixed dose, 20% caprylocaproyl polyoxyl-8 glycerides and 80% glycerol monocaprylocaprate, 100 mg/mL, mean ± SD, n=6
[5] = male, beagle, dog, plasma, po, 7.5 mg, fasted, pentagastrin-pretreated male beagle dogs, oral LFC 7.5 mg fixed dose, 100% glycerol monocaprylocaprate, 50 mg/mL, mean ± SD, n=6
[6] = male, beagle, dog, plasma, po, 7.5 mg, fasted, pentagastrin-pretreated male beagle dogs, oral LFC 7.5 mg fixed dose, 100% glycerol monocaprylocaprate, 100 mg/mL, mean ± SD, n=6

For `CC(C)(C#Cc1ccc(-c2ccc(Cl)c3c(NS(C)(=O)=O)nn(CC(F)(F)F)c23)c([C@H](Cc2cc(F)cc(F)c2)NC(=O)Cn2nc(C(F)(F)F)c3c2C(F)(F)[C@@H]2C[C@H]32)n1)S(C)(=O)=O` [Formula (Ia), N—((S)-1-(3-(4-chloro-3-(methylsulfonamido)-1-(2,2,2-trifluoroethyl)-1H-indazol-7-yl)-6-(3-methyl-3-(methylsulfonyl)but-1-yn-1-yl)pyridin-2-yl)-2-(3,5-difluorophenyl)ethyl)-2-((3bS,4aR)-5,5-difluoro-3-(trifluoromethyl)-3b,4,4a,5-tetrahydro-1H-cyclopropa[3,4]cyclopenta[1,2-c]pyrazol-1-yl)acetamide], the Tmax [1] was 8.7 to 18.7 h, the “Time plasma concentrations maintained above the target trough concentration of 20 nM” value ([2]; beagle dogs, oral liquid-filled capsules, 100% glycerol monocaprylocaprate, 7.5 mg fixed dose) was “at least 72 hours” and the Tmax ([2]; beagle, dog, plasma, po, 7.5 mg, beagle dogs, oral liquid-filled capsules, 100% glycerol monocaprylocaprate, 7.5 mg fixed dose, 50 mg/mL (Table S), mean ± SD, n=6) was 11 ± 10.1 h. The AUC(0-t) ([2]; beagle, dog, plasma, po, 7.5 mg, beagle dogs, oral liquid-filled capsules, 100% glycerol monocaprylocaprate, 7.5 mg fixed dose, 50 mg/mL (Table S), mean ± SD, n=6, read-out: AUC0-72h) was 5.07 ± 4.65 µM·h, the AUC(0-t) ([2]; beagle, dog, plasma, po, 7.5 mg, beagle dogs, oral liquid-filled capsules, 100% glycerol monocaprylocaprate, 7.5 mg fixed dose, 50 mg/mL (Table S), mean ± SD, n=6, read-out: AUC0-14d) was 108 ± 16 µM·h and the concentration at 72 h ([2]; dog, plasma, beagle dogs, oral liquid-filled capsules, 100% glycerol monocaprylocaprate, 7.5 mg fixed dose, 50 mg/mL (Table S), mean ± SD, n=6, read-out: C72h) was 20.1 ± 24.4 nM. The AUC(0-inf) [2, 4] was 1.3 ± 0.634 µM·h, the Cmax [2, 4] was 53.2 ± 16.7 nM and the Tmax [2, 4] was 7.7 ± 8 h. For the same molecule, the AUC(0-t) ([2]; dog, plasma, fasted, pentagastrin-pretreated male beagle dogs, oral LFC 7.5 mg fixed dose, 20% caprylocaproyl polyoxyl-8 glycerides and 80% glycerol monocaprylocaprate, 100 mg/mL, mean ± SD, n=6, read-out: AUC0-72h) was 1.18 ± 0.575 µM·h, the bioavailability ([2]; male, beagle, dog, plasma, 7.5 mg, as above (20%/80% LFC, 100 mg/mL), mean ± SD, n=6) was 11 ± 4% and the bioavailability ([2]; male, beagle, dog, plasma, 7.5 mg, as above (100% glycerol monocaprylocaprate LFC, 50 mg/mL), mean ± SD, n=6) was 22 ± 10%. It also gave a bioavailability ([2]; male, beagle, dog, plasma, 7.5 mg, as above (100% glycerol monocaprylocaprate LFC, 100 mg/mL), mean ± SD, n=6) of 16 ± 9%, an AUC(0-inf) [2, 5] of 2.33 ± 1.35 µM·h and a Cmax [2, 5] of 82.7 ± 32.1 nM. The Tmax [2, 5] was 4 h, the AUC(0-t) ([2]; male, beagle, dog, plasma, po, 7.5 mg, fasted, pentagastrin-pretreated male beagle dogs, oral LFC 7.5 mg fixed dose, 100% glycerol monocaprylocaprate, 50 mg/mL, mean ± SD, n=6, read-out: AUC0-72h) was 2.18 ± 1.24 µM·h and the AUC(0-inf) [2, 6] was 1.87 ± 1.19 µM·h. For the same molecule, the Cmax [2, 6] was 71.2 ± 25.8 nM, the Tmax [2, 6] was 5 ± 1.1 h and the AUC(0-t) ([2]; male, beagle, dog, plasma, po, 7.5 mg, fasted, pentagastrin-pretreated male beagle dogs, oral LFC 7.5 mg fixed dose, 100% glycerol monocaprylocaprate, 100 mg/mL, mean ± SD, n=6, read-out: AUC0-72h) was 1.67 ± 1.04 µM·h. For the same molecule, the AUC(0-t) [3] was 13.5 µM·h, the EC50 (WT HXB2D; Human immunodeficiency virus 1, MT2, read-out: WT HXB2D EC50, MT-2 cells, INSTI-resistance panel (Table 14)) was 0.13 ± 0.03 nM and the EC50 (WT HXB2D; Human immunodeficiency virus 1, MT2, read-out: WT HXB2D EC50, MT-2 cells, NNRTI-resistance panel (Table 13)) was 0.18 ± 0.02 nM. For the same molecule, the EC50 (WT HXB2D; MT-2 cells, PI-resistance panel (Table 11), read-out: WT HXB2D EC50) was 0.24 ± 0.14 nM, the “EC50 Fold-Change” value (PI-resistant viruses; G48V/V82A/L90M) was 0.4 ± 0.2 and the “EC50 Fold-Change” value (PI-resistant viruses; G48V/V82S) was 0.4 ± 0.1. For the same molecule, the “EC50 Fold-Change” value (PI-resistant viruses; I50V) was 0.6 ± 0.2, the “EC50 Fold-Change” value (PI-resistant viruses; I84V/L90M) was 0.3 ± 0.1 and the “activity against all tested mutants, in words” value (PI-resistant viruses; mutants resistant to PIs) was “fully active”. The “EC50 Fold-Change” value (NNRTI-resistant viruses; K103N) was 0.3 ± 0.1, the “EC50 Fold-Change” value (NNRTI-resistant viruses; K103N/Y181C) was 0.5 ± 0.2 and the “EC50 Fold-Change” value (NNRTI-resistant viruses; L100I/K103N) was 0.5 ± 0.2. For the same molecule, the “EC50 Fold-Change” value (NNRTI-resistant viruses; Y181C) was 1.6 ± 1.0, the “EC50 Fold-Change” value (NNRTI-resistant viruses; Y188L) was 0.5 ± 0.1 and the “activity against all tested mutants, in words” value (NNRTI-resistant viruses; mutants resistant to NNRTIs) was “fully active”.
